Among the test systems are 786-0 renal; CCRF-CEM leukemia; PC-3 prostate; RXF 393 renal; RPMI-8226 leukemia; MCF7 breast; UO-31 renal; SK-MEL-28 melanoma; TK-10 renal; U251 CNS.
What all share (assay): growth of human tumour cells (NCI), 48 h

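Method: 48-hour compound exposure of cells in 96-well plates, five concentrations, linear interpolation of endpoints. At the GI50, growth is halved. TGI marks complete inhibition of growth.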 *1 amine or outer side, *2 acyl side, *3 side chain or, on linkers, in order; H or OH if unused. Where a SMILES comes first, the peptide text is derived from it. [ ]: non-standard residue; d: D form. ξ: configuration not given here. X21 = CC[C@@H](C)C(N[*:1])C(=O)[*:2]; ξR = N=C(N)NCCCC(N)C(=O)O; ξI = CCC(C)C(N)C(=O)O; ξL = CC(C)CC(N)C(=O)O; ξK = NCCCCC(N)C(=O)O; ξV = CC(C)C(N)C(=O)O; ξA = CC(N)C(=O)O Bounds are passed on as bounds.

Consider `CCCN(CCSSCCNc1nc(N(C)O)nc(N(C)O)n1)c1nc(N(C)O)nc(N(C)O)n1`, for which the GI50 was 3.67 µM in the test on 786-0 renal; 2.24 µM with CCRF-CEM leukemia; 82.4 µM with PC-3 prostate; 81 µM in the test on RXF 393 renal; 4.48 µM in the test on RPMI-8226 leukemia; 4.68 µM in the test with MCF7 breast. The GI50 in the test on UO-31 renal was 5.19 µM; with SK-MEL-28 melanoma, 6.99 µM; in the test with TK-10 renal it was 3.25 µM; in the test with U251 CNS, 5.35 µM. Further, the TGI in the test with 786-0 renal, in the test on CCRF-CEM leukemia, in the test with PC-3 prostate, in the test on RXF 393 renal, in the test with RPMI-8226 leukemia and with MCF7 breast was over 100 µM each time. Further, the TGI with UO-31 renal, in the test with SK-MEL-28 melanoma, with TK-10 renal and with U251 CNS was over 100 µM each time.
Take `N#C/C(=C\c1ccc(Br)cc1)n1nnc2ccccc21`: the GI50 in the test on 786-0 renal is 0.501 µM; in the test on CCRF-CEM leukemia, 0.357 µM; in the test with PC-3 prostate, 0.47 µM; in the test on RXF 393 renal it was 0.427 µM; in the test on RPMI-8226 leukemia it was 0.475 µM; in the test with MCF7 breast, 0.303 µM. In addition, the GI50 in the test with UO-31 renal was 0.449 µM; with SK-MEL-28 melanoma, 0.94 µM; with TK-10 renal, 2.69 µM; with U251 CNS, 1.1 µM. The TGI with 786-0 renal was determined as 1.79 µM; in the test with CCRF-CEM leukemia, 16.6 µM; in the test with PC-3 prostate, 2.3 µM; with RXF 393 renal, 1.94 µM; with RPMI-8226 leukemia, 3.31 µM; with MCF7 breast, 6.2 µM. Further, the TGI is 1.63 µM in the test with UO-31 renal, 3.54 µM with SK-MEL-28 melanoma, 6.8 µM with TK-10 renal and 2.67 µM with U251 CNS.
Take `OCC(O)C(O)C(O)/C=N/Nc1nc2ccccc2nc1-c1ccccc1` (stereo not given): the GI50 with 786-0 renal was over 100 µM; with CCRF-CEM leukemia, 32.2 µM; with PC-3 prostate, 82.4 µM; in the test on RXF 393 renal it was over 100 µM; in the test with RPMI-8226 leukemia, 85.3 µM; in the test on MCF7 breast, 97.9 µM. For the same compound, the GI50 in the test on UO-31 renal is over 100 µM; in the test with SK-MEL-28 melanoma it was over 100 µM; in the test with TK-10 renal it was over 100 µM; with U251 CNS, 77.9 µM. Also, the TGI in the test on 786-0 renal, with CCRF-CEM leukemia, in the test on PC-3 prostate, in the test with RXF 393 renal, with RPMI-8226 leukemia and with MCF7 breast was over 100 µM each time. The TGI in the test with UO-31 renal, with SK-MEL-28 melanoma, with TK-10 renal and with U251 CNS was over 100 µM each time.
Take `CN1CCN(c2ccc(C(=O)Nc3cc(-c4cccc(NS(=O)(=O)c5ccccc5)c4)[nH]n3)cc2)CC1`: the GI50 in the test with 786-0 renal was 4.8 µM; in the test with CCRF-CEM leukemia, 3.28 µM; in the test on PC-3 prostate it was 10.2 µM; in the test with RXF 393 renal, 2.55 µM; in the test with RPMI-8226 leukemia, 3.33 µM; in the test on MCF7 breast, 3.25 µM. The GI50 with UO-31 renal is 6.26 µM; with SK-MEL-28 melanoma, 11.4 µM; with TK-10 renal, 12.4 µM; in the test on U251 CNS it was 2.87 µM. The TGI was 24.2 µM in the test on 786-0 renal; 42.3 µM in the test on CCRF-CEM leukemia; 33.2 µM with PC-3 prostate; 12.5 µM in the test with RXF 393 renal; 14.5 µM in the test on RPMI-8226 leukemia; 16.9 µM in the test with MCF7 breast. Further, the TGI in the test on UO-31 renal was determined as 27.8 µM; in the test with SK-MEL-28 melanoma, 27 µM; in the test on TK-10 renal, 26.7 µM; in the test with U251 CNS, 18.7 µM.
On to `COc1cc(OC)c(C(=O)/C=C/c2cccc(OC(C)=O)c2)cc1CC=C(C)C`, for which the GI50 was 9.85 µM with 786-0 renal; 7 µM in the test with CCRF-CEM leukemia; 9.4 µM in the test with PC-3 prostate; 10.2 µM with RXF 393 renal; 8.94 µM in the test with RPMI-8226 leukemia; 2.54 µM in the test on MCF7 breast. In addition, the GI50 in the test on UO-31 renal was 15.9 µM; in the test with SK-MEL-28 melanoma, 9.52 µM; in the test with TK-10 renal, 23.6 µM; with U251 CNS, 6.91 µM. In addition, the TGI turned out to be 19.8 µM in the test with 786-0 renal; 31 µM with CCRF-CEM leukemia; 44 µM with PC-3 prostate; 32.3 µM in the test on RXF 393 renal; 33.7 µM with RPMI-8226 leukemia; 44 µM in the test with MCF7 breast. In addition, the TGI was over 50 µM in the test on UO-31 renal, 22.2 µM in the test on SK-MEL-28 melanoma, over 50 µM in the test with TK-10 renal and 14.7 µM in the test on U251 CNS.
`CCC(C)C1NC(=O)C(CC(C)C)NC(=O)C(C)NC(=O)C(C(C)C)NC(=O)C(CCCCN)NC(=O)C(CC(C)C)NC(=O)C(C(C)C)NC(=O)[C@H](C)NC(=O)C(C(C)CC)NC(=O)C(CCCN=C(N)N)NC(=O)C(CCCCN)NC(=O)C(CCCN=C(N)N)NC(=O)C(CCCCN)NC(=O)C([C@H](C)CC)NC(=O)C(CCCCN)NC1=O` (stereo not given in full) (cyclo(A[ξV][ξL][ξK][ξV][ξA][ξL][ξI][ξK][X21][ξK][ξR][ξK][ξR][ξI])): the GI50 was 1.62 µM in the test with 786-0 renal; 1.43 µM in the test with CCRF-CEM leukemia; 0.701 µM with PC-3 prostate; 1.52 µM with RXF 393 renal; 0.305 µM with RPMI-8226 leukemia; 1.54 µM with MCF7 breast. The GI50 with UO-31 renal is 1.37 µM; in the test with SK-MEL-28 melanoma it was 1.82 µM; in the test on TK-10 renal, 1.62 µM; in the test with U251 CNS it was 1.5 µM. For the same compound, the TGI with 786-0 renal was 3.17 µM; with CCRF-CEM leukemia it was 5.07 µM; in the test on PC-3 prostate, 4.85 µM; with RXF 393 renal, 2.96 µM; with RPMI-8226 leukemia it was 1.13 µM; in the test with MCF7 breast, 5.65 µM. For the same compound, the TGI with UO-31 renal was determined as 2.67 µM; in the test with SK-MEL-28 melanoma it was 4.34 µM; in the test on TK-10 renal, 3.82 µM; with U251 CNS it was 3.44 µM.
For `COc1ccc2c(c1)C1(C(=O)N2)C(C#N)=C(c2ccccc2)Nc2c1c(-c1ccccc1)nn2-c1ccccc1` (stereo not given), the GI50 is 2.03 µM in the test on 786-0 renal; 2.9 µM in the test with CCRF-CEM leukemia; 1.98 µM with PC-3 prostate; 1.93 µM in the test on RXF 393 renal; 4.07 µM in the test with RPMI-8226 leukemia; 2.09 µM in the test with MCF7 breast. In addition, the GI50 is 15.8 µM in the test with UO-31 renal, 2.21 µM with SK-MEL-28 melanoma, 2.41 µM in the test with TK-10 renal and 2.8 µM with U251 CNS. In addition, the TGI came out at 4.94 µM in the test with 786-0 renal; 10.4 µM with CCRF-CEM leukemia; 3.67 µM in the test with PC-3 prostate; 5.3 µM in the test on RXF 393 renal; 17.8 µM in the test on RPMI-8226 leukemia; 6.79 µM with MCF7 breast. Further, the TGI in the test on UO-31 renal amounted to 30.1 µM; with SK-MEL-28 melanoma, 5.4 µM; with TK-10 renal it was 7.49 µM; in the test with U251 CNS, 7.12 µM.

The record behind these values is PubChem BioAssay (NCI).
